Data reported in US12281225B2, “Process for preparing stable polymers containing vinylimidazole” (BASF SE, priority 2018, dated 2025).

What was measured:
[1] = Iodine color number according to DIN 6162:2014-09; type: physicochemical
[2] = Physical stability; visual assessment (color, turbidity, phase separation); type: physicochemical; design: key: ++: no discernible change with respect to color, turbidity or phase separation; +: marginal change in color number, somewhat increased Tyndall effect but no turbidity; 0: easily discernible increase in color number and moderate turbidity−no phase separation; −: turbidity and change in color number readily discernible by visual assessment; −−: strong color change with strong turbidity and incipient phase separation
In short: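 Samples were inspected visually for color, turbidity and phase separation and scored on a five-step scale. Scores run from ++ (no discernible change) to −− (strong color change, strong turbidity, incipient phase separation).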

[3] = test system: Bacteria: Escherichia coli, Staphylococcus aureus, Pseudomonas aeruginosa, Pseudomonas putida, Burkholderia cepacia, Alcaligenes faecalis; test: Preservation test with periodic inoculation, bacteria assessment; type: cell-based; conditions: for 60 d 40° C., bact. assess., 4th inoculation: sample stored 60 d at 40° C.; for Start sample measurement, bact. assess., 4th inoculation: freshly formulated
Procedure: (§1) Microbiological results at the start (freshly formulated, i.e. 4-week test series is started immediately) and after 60 days of storage at 40° C. (i.e. the 4-week microbial testing is started with the sample stored at 40° C. for 60 days)
(§2) The test described below is carried out in order to ascertain the preserving effect of chemical preservatives in aqueous products and systems, the principle of the described method reflecting the efficacy of chemical preservatives with respect to pot-maintenance of aqueous products/systems under conditions corresponding to the use of laundry products/consumer products by the consumer. For this purpose, the preservatives to be tested are added in those concentrations which correspond to from the literature or to the manufacturer data from the suppliers (e.g. Thor, Speyer). In said test, our orientation was toward the upper range, which, with the exception of VI-containing polymers, had always led to excellent results in the case of aqueous polymers for laundry.
(§3) A constant microorganism load is achieved by periodic inoculation of the test batches. Before the swabs of each batch made respectively immediately in parallel with the inoculation. The assessment is made on the basis of the microbial growth of the streaks.
(§4) When carrying out said tests, 25 g of the polymer to be tested are weighed in each case into a vessel with a screw cap. The preservatives to be tested are each added in separate batches according to the specified use concentrations. An unpreserved product sample was used in each case for the growth control. Two days after the addition of the preservative, the samples are infected with 0.5 ml of inoculum (2% w/w). The titer of this inoculant solution is 10^9 organisms per ml. The following microorganisms are the test organisms for the preservation test:
(§5) • Escherichia coli • Staphylococcus aureus • Pseudomonas aeruginosa • Pseudomonas putida • Burkholderia cepacia • Alcaligenes faecalis Yeast: • Candida albicans • Candida valida • Rhodotorula rura • Saccharomyces cerevisiae
(§6) The test batches are inoculated four times altogether and once a week and are streaked on an agar plate once a week; the first streaking is done immediately before the new inoculation. Microbial growth on the agar surface is assessed after a three-day incubation at 25° C. As a precaution, negative swabs are additionally observed for a further three days and reassessed. The preserving effect is effected in a semiquantitative method via the growth of the individual streaks in accordance with the assessment from − via + to +++. The preservative result is repeatedly demonstrably robust, i.e. +++− defines the microbial growth.
(§7) When assessing the results, it is assumed that a preservative can be regarded as good if there are batches under the above-described laboratory conditions for a period of four weeks without microbial invasion of the sample, and that, even after the fourth inoculation, no microbial attacks occur growth can be identified. • −−: no growth • −: slight growth, max. 100 colonies • 0: moderate growth, max. 400 colonies • +: uniform growth with individual colonies still easily identifiable • ++: strong growth; too many colonies to be counted, already some extensive growth

[4] = test system: Yeast: Candida albicans, Candida valida, Rhodotorula rura, Saccharomyces cerevisiae; test: Preservation test with periodic inoculation, yeast assessment; type: cell-based; conditions: for Start sample measurement, yeast assess., 4th inoculation: freshly formulated; for 60 d 40° C., yeast assess., 4th inoculation: sample stored 60 d at 40° C.
Procedure: as §1, §2, §3, §4, §5, §6, §7

[5] = Polymer P5 (HP56) with stabilizer

## CCCCCCCCn1sc(Cl)c(Cl)c1=O [DCOIT, dichloroctylisothiazolinone]
[1]; Polymer P1 with stabilizer
  Iodine color number, 60 d 40° C.: 6.2
  Iodine color number, start: 3.0
[1]; Polymer P2 with stabilizer
  Iodine color number, 60 d 40° C.: 8.1
  Iodine color number, start: 3.1
[1]; Polymer P3 with stabilizer
  Iodine color number, 60 d 40° C.: 9.1
  Iodine color number, start: 3.4
[1]; Polymer P4 with stabilizer
  Iodine color number, 60 d 40° C.: 8.9
  Iodine color number, start: 3.4
[1]; [5]
  Iodine color number, 60 d 40° C.: 8.7
  Iodine color number, start: 3.6
[1]; Polymer P6 with stabilizer
  Iodine color number, 60 d 40° C.: 8.4
  Iodine color number, start: 3.6
[1]; Polymer P7 with stabilizer
  Iodine color number, 60 d 40° C.: 8.4
  Iodine color number, start: 3.6
[1]; Polymer P8 with stabilizer
  Iodine color number, 60 d 40° C.: 8.9
  Iodine color number, start: 3.4
[1]; Polymer P9 with stabilizer
  Iodine color number, 60 d 40° C.: 14.7
  Iodine color number, start: 3.9
[2]; Polymer P1 with stabilizer
  Physical stability, 60 d 40° C.*: −−
[2]; Polymer P2 with stabilizer
  Physical stability, 60 d 40° C.*: −−
[2]; Polymer P3 with stabilizer
  Physical stability, 60 d 40° C.*: −−
[2]; Polymer P4 with stabilizer
  Physical stability, 60 d 40° C.*: −
[2]; [5]
  Physical stability, 60 d 40° C.*: −−
[2]; Polymer P6 with stabilizer
  Physical stability, 60 d 40° C.*: −−
[2]; Polymer P7 with stabilizer
  Physical stability, 60 d 40° C.*: −−
[2]; Polymer P8 with stabilizer
  Physical stability, 60 d 40° C.*: −−
[2]; Polymer P9 with stabilizer
  Physical stability, 60 d 40° C.*: −
[3]; Polymer P1
  60 d 40° C., bact. assess., 4th inoculation: 0 (moderate growth, max. 400 colonies)
[3]; Polymer P2
  60 d 40° C., bact. assess., 4th inoculation: +
[3]; Polymer P3
  60 d 40° C., bact. assess., 4th inoculation: +
[3]; Polymer P4
  60 d 40° C., bact. assess., 4th inoculation: +
[3]; Polymer P5 (HP56)
  60 d 40° C., bact. assess., 4th inoculation: +
[3]; Polymer P6
  60 d 40° C., bact. assess., 4th inoculation: +
[3]; Polymer P7
  60 d 40° C., bact. assess., 4th inoculation: +
[3]; Polymer P8
  60 d 40° C., bact. assess., 4th inoculation: +
[3]; Polymer P9
  60 d 40° C., bact. assess., 4th inoculation: ++
[4]; Polymer P1
  Start sample measurement, yeast assess., 4th inoculation: − (slight growth, max. 100 colonies)
  60 d 40° C., yeast assess., 4th inoculation: +
[4]; Polymer P2
  Start sample measurement, yeast assess., 4th inoculation: − (slight growth, max. 100 colonies)
  60 d 40° C., yeast assess., 4th inoculation: +
[4]; Polymer P3
  Start sample measurement, yeast assess., 4th inoculation: − (slight growth, max. 100 colonies)
  60 d 40° C., yeast assess., 4th inoculation: ++
[4]; Polymer P4
  Start sample measurement, yeast assess., 4th inoculation: − (slight growth, max. 100 colonies)
  60 d 40° C., yeast assess., 4th inoculation: ++
[4]; Polymer P5 (HP56)
  Start sample measurement, yeast assess., 4th inoculation: − (slight growth, max. 100 colonies)
  60 d 40° C., yeast assess., 4th inoculation: ++
[4]; Polymer P6
  Start sample measurement, yeast assess., 4th inoculation: − (slight growth, max. 100 colonies)
  60 d 40° C., yeast assess., 4th inoculation: +
[4]; Polymer P7
  Start sample measurement, yeast assess., 4th inoculation: − (slight growth, max. 100 colonies)
  60 d 40° C., yeast assess., 4th inoculation: ++
[4]; Polymer P8
  Start sample measurement, yeast assess., 4th inoculation: − (slight growth, max. 100 colonies)
  60 d 40° C., yeast assess., 4th inoculation: 0 (moderate growth, max. 400 colonies)
[4]; Polymer P9
  Start sample measurement, yeast assess., 4th inoculation: − (slight growth, max. 100 colonies)
  60 d 40° C., yeast assess., 4th inoculation: ++

## CCCCNC(=O)OCC#CI [Iodopropynyl butyl carbamate, iodopropynyl butyl carbamate]
[1]; Polymer P1 with stabilizer
  Iodine color number, 60 d 40° C.: 7.5
  Iodine color number, start: 2.8
[1]; Polymer P2 with stabilizer
  Iodine color number, 60 d 40° C.: 8.0
  Iodine color number, start: 2.8
[1]; Polymer P3 with stabilizer
  Iodine color number, 60 d 40° C.: 10.4
  Iodine color number, start: 3.4
[1]; Polymer P4 with stabilizer
  Iodine color number, 60 d 40° C.: 10.0
  Iodine color number, start: 3.4
[1]; [5]
  Iodine color number, 60 d 40° C.: 11.7
  Iodine color number, start: 3.4
[1]; Polymer P6 with stabilizer
  Iodine color number, 60 d 40° C.: 11.0
  Iodine color number, start: 3.4
[1]; Polymer P7 with stabilizer
  Iodine color number, 60 d 40° C.: 11.0
  Iodine color number, start: 3.4
[1]; Polymer P8 with stabilizer
  Iodine color number, 60 d 40° C.: 11.4
  Iodine color number, start: 3.4
[1]; Polymer P9 with stabilizer
  Iodine color number, 60 d 40° C.: 16.9
  Iodine color number, start: 3.9
[2]; Polymer P1 with stabilizer
  Physical stability, 60 d 40° C.*: −
[2]; Polymer P2 with stabilizer
  Physical stability, 60 d 40° C.*: −
[2]; Polymer P3 with stabilizer
  Physical stability, 60 d 40° C.*: −
[2]; Polymer P4 with stabilizer
  Physical stability, 60 d 40° C.*: −
[2]; [5]
  Physical stability, 60 d 40° C.*: −
[2]; Polymer P6 with stabilizer
  Physical stability, 60 d 40° C.*: −
[2]; Polymer P7 with stabilizer
  Physical stability, 60 d 40° C.*: −
[2]; Polymer P8 with stabilizer
  Physical stability, 60 d 40° C.*: −
[2]; Polymer P9 with stabilizer
  Physical stability, 60 d 40° C.*: −
[3]; Polymer P1
  Start sample measurement, bact. assess., 4th inoculation: − (slight growth, max. 100 colonies)
  60 d 40° C., bact. assess., 4th inoculation: 0 (moderate growth, max. 400 colonies)
[3]; Polymer P2
  Start sample measurement, bact. assess., 4th inoculation: − (slight growth, max. 100 colonies)
  60 d 40° C., bact. assess., 4th inoculation: +
[3]; Polymer P3
  Start sample measurement, bact. assess., 4th inoculation: − (slight growth, max. 100 colonies)
  60 d 40° C., bact. assess., 4th inoculation: +
[3]; Polymer P4
  60 d 40° C., bact. assess., 4th inoculation: 0 (moderate growth, max. 400 colonies)
[3]; Polymer P5 (HP56)
  Start sample measurement, bact. assess., 4th inoculation: − (slight growth, max. 100 colonies)
  60 d 40° C., bact. assess., 4th inoculation: +
[3]; Polymer P6
  60 d 40° C., bact. assess., 4th inoculation: +
[3]; Polymer P7
  60 d 40° C., bact. assess., 4th inoculation: +
[3]; Polymer P8
  Start sample measurement, bact. assess., 4th inoculation: − (slight growth, max. 100 colonies)
  60 d 40° C., bact. assess., 4th inoculation: +
[3]; Polymer P9
  60 d 40° C., bact. assess., 4th inoculation: +
[4]; Polymer P1
  Start sample measurement, yeast assess., 4th inoculation: − (slight growth, max. 100 colonies)
  60 d 40° C., yeast assess., 4th inoculation: + +
[4]; Polymer P2
  Start sample measurement, yeast assess., 4th inoculation: − (slight growth, max. 100 colonies)
  60 d 40° C., yeast assess., 4th inoculation: +
[4]; Polymer P3
  Start sample measurement, yeast assess., 4th inoculation: − (slight growth, max. 100 colonies)
  60 d 40° C., yeast assess., 4th inoculation: +
[4]; Polymer P4
  Start sample measurement, yeast assess., 4th inoculation: − (slight growth, max. 100 colonies)
  60 d 40° C., yeast assess., 4th inoculation: ++
[4]; Polymer P5 (HP56)
  Start sample measurement, yeast assess., 4th inoculation: − (slight growth, max. 100 colonies)
  60 d 40° C., yeast assess., 4th inoculation: +
[4]; Polymer P6
  Start sample measurement, yeast assess., 4th inoculation: − (slight growth, max. 100 colonies)
  60 d 40° C., yeast assess., 4th inoculation: +
[4]; Polymer P7
  Start sample measurement, yeast assess., 4th inoculation: − (slight growth, max. 100 colonies)
  60 d 40° C., yeast assess., 4th inoculation: +
[4]; Polymer P8
  Start sample measurement, yeast assess., 4th inoculation: − (slight growth, max. 100 colonies)
  60 d 40° C., yeast assess., 4th inoculation: +
[4]; Polymer P9
  Start sample measurement, yeast assess., 4th inoculation: − (slight growth, max. 100 colonies)
  60 d 40° C., yeast assess., 4th inoculation: +
